Measurements published in patent US12324827B2, “Combination therapy for the treatment of migraines” (The University of Chicago, priority 2019, dated 2025).

Key:
[1] = within 30 minutes of N2B administration; cited from earlier work
spreading depression = details: cited from earlier work
[2] = system: trigeminal ganglion malondialdehyde (MDA); experiment: Trigeminal ganglion V1 malondialdehyde immunostaining after recurrent CSD, nasal IGF-1 with or without intravenous anti-CGRP antibody (Example 5); format: in vivo, rat
Method: Migraine will be modeled using recurrent CSD (Grinberg et al., 2019; Won and Kraig 2019a,b; Won and Kraig, 2020). Briefly, the day before recurrent CSD, animals are anesthetized with inhalational isoflurane in oxygen (2-5%) and treated with intranasal IGF-1 (150 μg in 50 μl succinate buffer).
The next day (i.e., 20-24 hours later) animals are again be anesthetized as above with inhalational isoflurane and the left femoral vein cannulated for antibody infusion. Select groups of animals (see below) are treated with intravenous infusion either 1 mg/kg anti-CGRP (ab81887) or isotype IgG2a control in 0.5-0.6 ml normal saline. After infusions, the femoral incision is closed with wound clips.
Animals are stabilized for an hour under anesthesia (1.5% isoflurane in oxygen) after head sutures are removed, eyes coated with Artificial Tears and animals made ready for initiation and recording of CSD under deeper (5%) isoflurane in oxygen, which is then lowered back to 1.5% isoflurane in oxygen during CSD recordings. CSD is initiated as described above one to four hours after antibody infusion. All animals receive nine KCl injections. […]
2. […] All animals for nasal delivery of IGF-1 plus intravenous treatment (i.e., one ml saline or anti-CGRP antibody) followed by 90 minutes of evoked CSDs) were analyzed for trigeminal cervical complex c-fos immunostaining and trigeminal ganglion malondialdehyde immunostaining as previously described (Won and Kraig, 2020).
The inventors used a verified method of quantifying immunostaining log-ratios (experimental/sham) as a further means to reduce potential run-to-run variations in immunostaining for malondialdehyde, CGRP and c-fos positive cells (Won and Kraig, 2020). Images of malondialdehyde and CGRP were analyzed in blinded pairs so that they could be converted once decoded to ratios of experimental/sham image integrated optical intensity, a sensitive metric that not only accounts for the area but also the pixel intensity of related image fluorescence.

trigeminal ganglion CGRP = experiment: CGRP immunostaining of trigeminal ganglion (V1) in naïve animals 24 hours after N2B IGF-1; format: in vivo, rat
Method: 24 hours later animals were re-anesthetized, brains harvested and processed for CGRP immunostaining of the TG. Images were obtained from each animal and image fluorescence intensity quantified via a digital imaging strategy. Three images were measured per animal and the averages recorded. Nasal delivery and image processing was completed while blinded to conditions. Experiments, immunostaining and imaging were done in pairs (i.e., sham and IGF-1) to reduce potential variability. […] This reduction was significant (p<0.001; alpha=0.05; power of 1.00). Scale bar=50 μm. […]
The inventors used computer-based and blinded semi-quantitative digital quantification of immunostaining metrics to test the ability of N2B IGF-1 to impact TS activation. […]
Imaging was performed using a Photometrics self-calibrating digital camera QuantEM-512SC camera (500×500 pixels; Photometrics, Tucson, AZ) run on MetaMorph software (v. 7.0.4; Molecular Devices, Sunnyvale, CA) under blinded conditions (as previously described (13, 20-22). Image exposure, camera gain and thresholding were uniformly set (i.e., equivalently for experimental and sham groups for each imaging metric (i.e., MDA, CGRP and c-fos). Resultant images were digitally stored as TIFF files for subsequent analyses that continued under blinded conditions where image integrated fluorescence intensity was registered using MetaMorph software for MDA and CGRP. […]

IGF-1: human recombinant IGF-1 (#191-G1; R&D Systems), 150 μg in 50 μL sodium succinate buffer, delivered nose-to-brain
levels in the trigeminal ganglion relative to levels in the olfactory bulb [1]: ~10 fold
protection against SD over sham treatment (spreading depression; SD from KCl, pretreatment): ~27 fold
spreading depression in whole animals (spreading depression; nasal delivery): significantly inhibited spreading depression in whole animals
ln ratio of trigeminal ganglion MDA immunostaining ([2]; nasal IGF-1 alone, as previously reported (Won and Kraig, 2020), n=5): −1.76±0.29
ln ratio of trigeminal ganglion MDA immunostaining ([2]; nasal IGF-1 plus intravenous saline, n=3): −1.75±0.56
ln ratio of trigeminal ganglion MDA immunostaining, combined groups ([2]; nasal IGF-1 with or without intravenous saline / nasal succinate, n=8): −1.76±0.39
reduction of CGRP levels in the trigeminal ganglion of naïve animals (trigeminal ganglion CGRP; N2B IGF-1 150 μg versus sham, 24 hours, p<0.001): ~75%
natural logarithm ratio (IGF-1/sham) of CGRP immunostaining, naïve animals (trigeminal ganglion CGRP; n=7/group): −1.66±0.32
